Measured values taken from patent US8507724B2 (priority 2008, dated 2013).

Biological target: T1, α1 homomeric glycine receptors (Rattus norvegicus, UniProt P07727)
T1 construct: expressed in transfected cells; host or cells: HEK 293 (transient transfection by electroporation, cDNA in pCIS2 vector)
T1 sequence (P07727 29-457): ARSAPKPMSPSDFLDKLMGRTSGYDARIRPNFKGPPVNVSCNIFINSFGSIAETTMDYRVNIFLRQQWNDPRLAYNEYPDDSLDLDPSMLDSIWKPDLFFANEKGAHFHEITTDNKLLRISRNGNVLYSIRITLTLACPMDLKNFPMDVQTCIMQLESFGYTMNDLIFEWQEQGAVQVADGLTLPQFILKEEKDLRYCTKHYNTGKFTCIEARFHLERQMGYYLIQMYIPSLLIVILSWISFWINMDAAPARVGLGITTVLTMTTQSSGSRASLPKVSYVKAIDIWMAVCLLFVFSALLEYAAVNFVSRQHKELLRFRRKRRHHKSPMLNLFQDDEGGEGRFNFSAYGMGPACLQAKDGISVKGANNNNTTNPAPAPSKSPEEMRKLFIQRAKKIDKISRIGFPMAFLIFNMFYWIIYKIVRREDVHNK
Test: Whole-cell patch-clamp, Cl- current activated via α1 homomeric glycine receptors in transfected HEK 293 cells
Format: cell-based
Experimental: Cells were cultured in Dulbecco's modified Eagle's medium (DMEM, Biochrom, Berlin, Germany), supplemented with 10% fetal calf serum (FCS, Biochrom, Berlin, Germany), 100 U ml^−1 penicillin and 100 μg ml^−1 streptomycin at 37° C. in a 5% CO2/air incubator. […] For co-transfection of rat α1 glycine receptor subunits, the corresponding cDNA, each subcloned in the pCIS2 expression vector (Invitrogen, San Diego, USA), was added to the suspension. To visualize transfected cells, they were co-transfected with cDNA of green fluorescent protein (GFP 10 μg ml^−1). For transfection, we used an electroporation device by EquiBio (Kent, UK).
The compounds according to the present invention under investigation were prepared as 1 M stock solution in ethanol, light-protected and stored in glass vessels at −20° C. Concentrations were calculated from the amount injected into the glass vials. Drug-containing vials were vigorously vortexed for 60 min. Glycine and picrotoxin were dissolved directly in bath solution.
Patch electrodes contained [mM] KCl 140, MgCl2 2, EGTA 11, HEPES 10, glucose 10; the bath solution contained [mM]
A tight electrical seal of several GΩ formed between the cell membrane and a patch-clamp electrode allows inward currents due to agonist-induced channel activation to resolve in the pA range. Electrical resistance of the pipettes was around 5 MΩ, corresponding to a total access resistance in the whole-cell configuration of about 10 MΩ. The compounds according to the present invention under investigation were applied to the cells via a smooth liquid filament achieved with a single outflow (glass tubing 0.15 mm inner diameter) connected to a piezo crystal. The cells were placed at the interface between this filament and the continuously flowing background solution. When a voltage pulse was applied to the piezo, the tube was moved up and down onto or away from the cell under investigation. Correct positioning of the cell in respect to the liquid filament was ensured applying a saturating (1000 μM) glycine pulse before and after each test experiment. Care was taken to ensure that the amplitude and the shape of the glycine-activated current had stabilized before proceeding with the experiment. Test solution and glycine (1000 μM) were applied via the same glass-polytetrafluoroethylen perfusion system, but from separate reservoirs. The contents of these reservoirs were mixed at a junction immediately before entering the superfusion chamber.
The compounds under test were applied alone in order to determine their direct agonistic effects. A new cell was used for each compound and each protocol, at least three different experiments were performed for each setting. The amount of the diluent ethanol corresponding to the highest compound concentration used was 34 000 μM.
For data acquisition and further analysis the inventors used the Axopatch 200B amplifier in combination with pClamp6 software (Axon Instruments, Union City, Calif., USA). Currents were filtered at 2 kHz. Fitting procedures were performed using a non-linear least-squares Marquardt-Levenberg algorithm. Details are provided in the appropriate figure legends or in the results section.
Activated currents were normalized to their own maximum response. The dose-response-curves were fitted according to (Inorm=[1+(EC50/[C])^nH]^−1), where Inorm is the current induced directly by the respective concentration [C] of the compound, normalized to the maximum inward current.

[1] = EC50 (nM), α1 homomer, initial tests, Hill fit to normalised response, rat α1 receptors in HEK 293

SMILES	EC50 [1]	nH (Hill coefficient), α1 homomer (initial tests, Hill fit to normalised response)	EC50 (EC50, further series of tests (later tests))
CC(C)c1cc(-c2ccc(Cl)cc2)cc(C(C)C)c1O [4-(p-Cl—Ph)-propofol, 4-(para-Chlorophenyl)-propofol]	0.2 ± 0.3 nM	1.1 ± 0.5	–
CC(C)c1cc(-c2ccc(Cl)c(F)c2)cc(C(C)C)c1O [p-(3-F,4-Cl—Ph)-propofol, Para-(3-Fluoro,4-chlorophenyl)-propofol]	0.8 nM	–	0.07 nM
